{"source": "patent US11135181B2", "about": "“Treatment for depression and depressive disorders” (Medlab IP Pty Ltd, priority 2014, dated 2021)", "type_in_all_cases": "in vivo, human", "key": {"[1]": {"system": "subjects diagnosed with depression", "assay": "Outcome Questionnaire-45 (OQ45) in subjects with treatment-resistant depression", "settings": "n=8", "from_the_text": "OQ45 is a self-report symptom and distress inventory designed as an independent measure of symptom distress and functioning to assess the response to intervention at regular intervals such as on a weekly bases (α=0.93, & κ>0.83). The OQ45 consists of 45 items with a five point scale. A high total score […] indicates a high level of symptom distress (anxiety, depression, and somatic, work and social role problems). Lower scores indicate less severity of problems. Average community non-clinical scores cut off (CO) occur at about >63, and changes of 14 points in either direction are typically considered clinically significant change and are reliable. […]\n(§1) Depression was monitored in the treated subjects over the eight week course using a variety of well known methodologies: the Beck Depression Inventory (BDI); the Depression and Anxiety Stress Scale (DASS); Outcome Questionnaire-45 (OQ45); the Warwick-Edinburgh Mental Well-Being Scale (WBS); and a Quality of Life (QoL score).\n(§2) Three subjects were administered a probiotic supplement containing magnesium orotate for eight weeks, and measures of depression (BDI and OQ45) assessed. […]\n(§3) BDI and OQ45 were assessed for each subject as described in Example 1, at the beginning of the study prior to the initiation of treatment and again at the completion of eight weeks of combined magnesium orotate plus probiotic administration. […]"}, "[2]": {"system": "subjects diagnosed with depression", "assay": "Depression and Anxiety Stress Scale (DASS) in subjects with treatment-resistant depression", "from_the_text": "The DASS short form is a 21 item self-report scale designed to measure depression and anxiety and was used here as a secondary self-report assessment. The DASS has high internal consistency and yields meaningful discriminations in a variety of settings (α=0.88-0.96).\n(§4) The study received ethical approval from the Medical Research Ethics Committee (MREC) University of Queensland, Australia, within the guidelines of the National Statement on Ethical Conduct in Human Research. All participants provided written informed consent for the study.\n(§5) The subjects were selected for inclusion in the study as follows. At the completion of a 15 week study investigating SAMe treatment of depression, suboptimal treatment responders (n=8) were inducted into the present orotate study after a 2 week wash out period. Sub-optimal treatment responders were defined as those still experiencing clinical depression by the SAMe study endpoint, which consisted of six participants with major depression and two with moderate depression. The subjects comprised six females between 33 to 70 years of age (mean age of 53 years) and two males between 48-54 years of age (mean age of 51 years). The orotate study was conducted as a single group study for 8 weeks (mean time for SAMe responders) with a focus was on efficacy.\nInclusion criteria also required a primary diagnosis of major depression that has a verifiable history of being treatment resistant, current medication type being SSRIs (for standardisation purposes), and at least 18 years of age with no upper age limit. Participants were also asked not to take any nutritional supplements such as B group vitamins or other supplements that have antidepressant effects (a list was provided to participants). […]\nas §1"}, "[3]": {"system": "subjects diagnosed with depression", "assay": "Quality of Life (QoL) score in subjects with treatment-resistant depression", "from_the_text": "QoL has 16 items and evaluates perceived satisfaction with life over a number of domains (α=0.85). QoL typically provides an important evaluation of perception of life circumstances and stressors.\nas §4, §5\n(§6) Inclusion criteria also required a primary diagnosis of major depression that has a verifiable history of being treatment resistant, current medication type being SSRIs (for standardisation purposes), and at least 18 years of age with no upper age limit. Participants were also asked not to take any nutritional supplements such as B group vitamins or other supplements that have antidepressant effects (a list was provided to participants).\nThe magnesium orotate was administered in capsule form, each capsule comprising 400 mg magnesium orotate. […]\nas §1"}, "[4]": {"system": "subjects diagnosed with depression", "assay": "Clinical depression status at study endpoint", "settings": "8 weeks, 1600 mg per day", "from_the_text": "as §4, §5, §6\nThe magnesium orotate was administered in capsule form, each capsule comprising 400 mg magnesium orotate. The daily dose of 1600 mg magnesium orotate was provided as two capsules taken in the morning and two capsules taken at night."}, "[5]": {"system": "subjects diagnosed with depression", "assay": "Warwick-Edinburgh Mental Well-Being Scale (WBS) in subjects with treatment-resistant depression", "from_the_text": "WBS has 14 items and assesses feelings and thoughts associated with mood (α=0.91) with higher scores indicate better mood. It has a different factor structure to the BDI and DASS and was used in this study as a measure of mood improvement.\nas §4\nThe subjects were selected for inclusion in the study as follows. At the completion of a 15 week study investigating SAMe treatment of depression, suboptimal treatment responders (n=8) were inducted into the present orotate study after a 2 week wash out period. Sub-optimal treatment responders were defined as those still experiencing clinical depression by the SAMe study endpoint, which consisted of six participants with major depression and two with moderate depression. […]\nas §1"}, "[6]": {"system": "subjects diagnosed with depression", "assay": "Beck Depression Inventory (BDI) in subjects with treatment-resistant depression", "from_the_text": "BDI is a 21-item self-report inventory that is widely used to assess depression. It has high internal constancy and correlates highly with other self-report measures of depression (α=0.60−0.90).\nas §4\nas §5, with “efficacy. […]” for “efficacy.”\nas §1, §2, §3"}, "[7]": {"settings": "after 8 weeks of 1600 mg per day oral capsules, n=8"}}}
{"substance": "magnesium orotate", "values": [{"measurement": "OQ45 mean score, Post-Treatment", "setting": "[1]; after 8 weeks of 1600 mg per day oral capsules", "result": 54.2}, {"measurement": "OQ45 mean score, Pre-Treatment", "setting": "[1]; baseline before treatment", "result": 86.6}, {"measurement": "DASS mean score, Post-Treatment", "setting": "[2]; [7]", "result": 25.2}, {"measurement": "DASS mean score, Pre-Treatment", "setting": "[2]; baseline before treatment, n=8", "result": 44.7}, {"measurement": "DASS paired difference, mean (DASS-DASS8)", "setting": "[2]; baseline minus week 8, 1600 mg per day, Sig. (2-tailed) .032", "result": 19.5}, {"measurement": "QoL mean score, Post-Treatment", "setting": "[3]; [7]", "result": 76.0}, {"measurement": "QoL mean score, Pre-Treatment", "setting": "[3]; baseline before treatment, n=8", "result": 55.2}, {"measurement": "QoL paired difference, mean (QoL-QoL8)", "setting": "[3]; baseline minus week 8, 1600 mg per day, Sig. (2-tailed) .027", "result": "−20.75"}, {"measurement": "share of the group in clinical remission by the endpoint", "setting": "[4]", "result": 50, "unit": "%"}, {"measurement": "share of the group mildly depressed", "setting": "[4]", "result": 10, "unit": "%"}, {"measurement": "share of the group that remained moderately depressed", "setting": "[4]", "result": 30, "unit": "%"}, {"measurement": "share of the group without any clinical change", "setting": "[4]", "result": 10, "unit": "%"}, {"measurement": "WBS mean score, Pre-Treatment", "setting": "[5]; baseline before treatment, n=8, higher score = better mood", "result": 34.6}, {"measurement": "WBS paired difference, mean (MWBS-WMBS8)", "setting": "[5]; baseline minus week 8, 1600 mg per day, Sig. (2-tailed) .025", "result": "−11"}, {"measurement": "BDI change score (mean, pre- versus post treatment)", "setting": "[6]; 8 weeks, 1600 mg per day, p=0.021", "result": 19}, {"measurement": "BDI mean score, Post-Treatment", "setting": "[6]; [7]", "result": 14.1}, {"measurement": "BDI mean score, Pre-Treatment", "setting": "[6]; baseline before treatment, n=8 SAMe suboptimal responders on SSRIs", "result": 33.8}]}
